These results are taken from patent US8273775B2, “Non-steroidal brassinosteroid mimetic” (priority 2006, dated 2012).

The test system of the experiment is cpd, det2-1 mutants. Kind of experiment: Phenotype rescue of BR-biosynthesis mutants. The class given is in vivo, Arabidopsis thaliana. The note with it: for phenotype rescue of cpd mutant: day 5 to day 11 on 1 μM BL or 30 μM ABRASIN; for rescue of dwarfed phenotype: light-grown, abrasin 50 μM or BL 1 μM. Here is the method: FIG. 5: Effect of brassinolide (BL) and abrasin (I5) treatment on mutants. WT or mutant plants were grown under standard conditions on agar plates. After 3 days of germination, plants were transferred to agar plates containing abrasin at a concentration of 50 μM or BL at a concentration of 1 μM.
For further phenotypical analysis, all plants were grown on vertically oriented square plates (Greiner Labortechnik, Austria) with solid medium derived from standard Murashige and Skoog medium under the same conditions. For the hypocotyl-elongation assay, plants were grown in the dark at 22° C. under the same conditions.
Col-0, the null BR signaling bri1-116 (Friedrichsen et al., 2000) and BR biosynthetic cpd (Szekeres et al., 1996) mutants were subjected to phenotype rescue analysis by treatments with BL and ABRASIN. As a negative control, dimethylsulfoxide (DMSO) was used. Plants were germinated in vitro for 5 days on ½ MS containing DMSO medium and from day 6th to day 11th they were transferred on medium supplemented with BL (10 nM, 100 nM, 1000 nM), ABRASIN (5 μM, 10 μM, 30 μM) or DMSO. Cotyledons and leaves were collected for flowcytometric analysis at the 11th day (i.e. 6 days of treatments). Samples for β-glucuronidase (GUS) assay were taken on day 6th (i.e. 1 day treatments), 8th (i.e. 3 days treatments), 10th (i.e. 5 days treatments). Rescue of soil-grown mutants at different growth stages was checked by watering bri1-116 and cpd mutants with either BL or 2 ml 300 μM ABRASIN per day.

As for `CC(C)[C@H](C)[C@@H](O)[C@H](O)[C@@H](C)[C@H]1CC[C@H]2[C@@H]3COC(=O)[C@H]4C[C@H](O)[C@H](O)C[C@]4(C)[C@H]3CC[C@]12C` [BL, brassinolide, reference compound], the “phenotype rescue of cpd mutant” value is reported as “rescued the dwarf statute of the cpd to a wild-type”; the “rescue of dwarfed phenotype” value was “rescues the cpd and det2-1 mutants”. Also, for the setting “6 days of treatments”, the “concentration sufficient to rescue the mutant phenotypes” value is 10 nM.

With `O=C(O)CCC(=O)Nc1ccc(Br)cn1` [abrasin, 4-[(5-bromo-2-pyridinyl)amino]-4-oxobutanoic acid], the “phenotype rescue of cpd mutant” value was “rescued the phenotypes of both bri1-116 and cpd mutants to the wild-type”; the “rescue of dwarfed phenotype” value is “all mutant lines, including the bri1 receptor mutants, showed an elongated phenotype”.
